Structures are written as SMILES. pIC50: −log10 of the molar value.

Data set [1] relates to lung adenocarcinoma cell line SW-1271. Nature of the data set: Cell proliferation inhibition assay, SW-1271 (Cell Titer-Glo, 5 days). Format: cell-based. The note with it: Homo sapiens, SW1271, 120 h; SW-1271, 5 days. From the text: (§1) This assay was used to study the effect of PARP-1 inhibitor alone for tumor suppression. Breast cancer susceptibility genes BRCA1 and BRCA2 play an important role in homologous recombination DNA repair. BRCA-mutant (or deficient) cells represent homologous recombination repair defect, if PARP-mediated DNA repair is inhibited at the same time, DNA damage in cells may be increased, resulting in chromatin abnormality or even cell death.
(§2) BRCA-mutant (or deficient) human prostatic cancer cell line DU-145, lung adenocarcinoma cell line SW-1271, as well as breast cancer cell lines MDA-MB-436 and MDA-MB-361 were selected for the assay, PARP inhibitor was used alone to evaluate its damage effect on cells. The inhibition effect of the compound was expressed by IC50.
(§3) Prostatic cancer cell line DU-145 grown in EMEM supplement with 10% FBS was seeded in 96 well tissue culture plates (2000 cells/well). Lung adenocarcinoma cell line SW-1271 grown in L15 supplement with 10% FBS was seeded in 96 well tissue culture plates (4000 cells/well), and breast cancer cell line MDA-MB-361 grown in L15 supplement with 20% FBS was seeded in 96 well tissue culture plates (4000 cells/well). Test compounds (10 mM stock solution in DMSO) and reference compound staurosporine (1 mM stock solution in DMSO) were diluted by DMSO for 200 times to obtain the desired final concentration. 0.5 ul compound dilutions were directly added to the cells in 96 well plates, and the cells were incubated at 37° C. for 5 days. HPE control wells were added 1 uM staurosporine dilution, while ZPE wells were added 0.5% DMSO. After 5 days plates were equilibrated to room temperature and 50 ul of Cell Titer-Glo Reagent (Promega) was added to the culture wells. The plates were agitated briefly and luminescence signal was measured with Envision (PerkinElmer). […] IC50 values were calculated with Prism software (Graph Pad, San Diego, Calif., USA) for both test compounds and reference compound staurosporine.
In general terms: In ATP-based viability assays light output follows the ATP content of the culture.

Data set [2] can be described thus: Solubility test (thermodynamic solubility in pH 7.4 phosphate buffer, HPLC). Format: physicochemical. As to the method: In this test, excess amount of test sample was added into pH=7.4 phosphate buffer. Ultrasonic was performed for 30 min until the drug no longer dissolved. The solution was continuously shaked for 24 hours at a constant temperature of 25° C. to achieve a thermodynamic equilibrium of compound, and then the solution was filtrated to get filtrate. Quantitative analysis of compound in filtrate using external standard method is performed according to “Appendix VD High Performance Liquid Chromatography, Part II of Pharmacopeia 2010,” and the sample thermohynamic solubility in pH=7.4 phosphate buffer was determined.
Agilent 1200 LC, Phenomen C18 column (4.6 mm*150 mm, […]), mobile phase: methanol:water (60:40), flow rate: 1 mL/min, column temperature: 25° C., wave length: 230 nm, injection volume: 10 μL
About 30 mg test compound was put in a 10 mL volumetric flask, about 8 mL pH=7.4 phosphate buffer was added and ultrasonic was performed for 30 min, and the solution was shaked for 24 hours in a shaker at a constant temperature of 25° C. The solution was settled for half an hour under 25° C., filtered with 0.45 μm hydrophilic filter. The filtrate was used as test sample. […]
The test solution was injected for three times according to the above chromatographic conditions. The peak area was measured to calculate the corresponding concentration. […]

Data set [3] in a line: Pharmacokinetic test in male SD rats, tail vein injection. In kind it is in vivo, rat. The note with it: for AUC(0-t) / MRT / clearance / half-life / Vd: rat, plasma, iv, 15 mg/kg tail vein injection; for Vd: read-out: Vdss. Here is the method: Male SD rats were used as experimental animals in this test. […] LC-MS/MS method was used to test blood drug concentration, and Winnonlin 6.1 software was used to calculate pharmacokinetic parameters to study and evaluate the pharmacokinetic properties.
12 male SD rats weighed 180-260 g, purchased from Vital River Laboratory Animal Technology Co., Ltd.
0.2 mL blood was collected through jugular vein before dosing and at 5 min, 15 min, 30 min, 1 h, 2 h, 4 h, 8 h, 12 h and 24 h after the dosing, respectively, and put into heparinized tubes. The samples were centrifuged for 10 min at 5500 rpm to separate plasma, and stored at −30° C.
An aliquot of 20 μL of plasma sample was added with 200 μL acetonitrile (containing 5.00 ng/mL verapamil and 50.0 ng/mL glibenclamide as internal standards). The mixture was vortexed for 4 min, and then centrifuged at 3700 rpm for 18 min. An aliquot of 70 μL supernatant was added into 70 μL water, and then vortexed for 4 min. Finally, 10 μL of the mixture was injected into the LC-MS/MS system for analysis.
An aliquot of 30 μL of plasma sample was added with 150 μL acetonitrile (containing 5.00 ng/mL verapamil and 50.0 ng/mL glibenclamide as internal standards). The mixture was vortexed for 5 min, and then centrifuged at 3700 rpm for 18 min. An aliquot of 70 μL supernatant was added into 70 μL water, and then vortexed for 5 min. Finally, 10 μL of the mixture was injected into the LC-MS/MS system for analysis.
Winnonlin 6.1 software was used to calculate pharmacokinetic parameters.

Data set [4] concerns prostatic cancer cell line DU-145. Put plainly: Cell proliferation inhibition assay, DU-145 (Cell Titer-Glo, 5 days). In kind it is cell-based. To be noted: Homo sapiens, 120 h; DU-145, 5 days.
The subject of data set [5] is breast cancer cell line MDA-MB-361. Nature of the data set: Cell proliferation inhibition assay, MDA-MB-361 (Cell Titer-Glo, 5 days). The note with it: Homo sapiens, 120 h; MDA-MB-361, 5 days; read-out: IC50 MD-MBA-361. Format: cell-based.
Source text: as §1, §2, §3

The subject of data set [6] is rat model of focal cerebral ischemia. To be noted: i.p. 10 mg/kg two hours prior to and two hours after initiation of ischemia; cited from earlier work.
Data set [7] relates to mice following a two hour occlusion of the MCA. To be noted: intracerebroventricular administration; cited from earlier work.

One may read the pIC50 as −log10 of the IC50, conventionally taken in molar units. Broadly, the AUC(0-t) is exposure summed from dosing to a finite time, without extrapolation to infinity. The low end stands for less exposure, the high end for more exposure. As usually defined, the MRT is a mean duration of stay, worked out from the concentration-time curve. The clearance is the rate of elimination divided by the concentration. Read a low clearance as inefficient removal. For orientation: half-life means the time in which the quantity being followed falls by half. Higher therefore signals slow decline. Take `CN(C)C1(C(=O)N2CCN(C(=O)c3cc(Oc4n[nH]c(=O)c5ccccc45)ccc3F)CC2)CC1` [Compound 124, 4-(3-(4-(1-(dimethylamino)cyclopropanecarbonyl)piperazine-1-carbonyl)-4-fluorophenoxy)2H-phthalazin-1-one]: the pIC50 in data set [1] was 5.80. Besides, the “water solubility relative to AZD-2281” value in data set [2] is recorded as “enhanced by almost twice”. Moreover, the “pharmacokinetic properties relative to AZD-2281” value in data set [3] (15 mg/kg i.v.) is “significantly superior to AZD-2281”. Also, in data set [3], the AUC(0-t) came to 10100 ng·h/mL, the MRT was 22.4 min, the clearance worked out at 28 mL/min/kg and the half-life is 185 min. In addition, in data set [3], the Vd was 0.665 L/kg. In addition, the pIC50 in data set [4] was 5.57.

Take `O=C(c1cc(Cc2n[nH]c(=O)c3ccccc23)ccc1F)N1CCN(C(=O)C2CC2)CC1` [AZD-2281, olaparib]: the pIC50 in data set [1] was 4.76. For the same compound, the pIC50 in data set [5] was less than 5.00. Moreover, in data set [3] (15 mg/kg i.v.), the exposure entry is listed as “low exposure” and the metabolic stability entry was “poor metabolic stability”. In addition, in data set [3], the AUC(0-t) is 6440 ng·h/mL, the MRT came out at 19.8 min, the clearance worked out at 39.1 mL/min/kg and the half-life is 40.9 min. Also, the Vd in data set [3] came out at 0.766 L/kg. Further, in data set [4], the pIC50 is 4.19.

Turning to `O=C1NCCc2c(OCCCCN3CCCCC3)cccc21` [DPQ, 3,4-dihydro-5-[4-(1-piperidinyl)butoxy]-1 (2H)-isoquinolinone], the “reduction in infarct volume” value in data set [6] was 54%.

Turning to `NC(=O)c1cccc(N)c1` [Compound 3-AB, 3-aminobenzamide], the “decrease in infarct volume” value in data set [7] is on record as 47%.

As to `O=C(c1cc(Oc2n[nH]c(=O)c3ccccc23)ccc1F)N1CCN(C(=O)C2CCC(F)(F)CC2)CC1` [Compound 107, 4-(3-(4-(4,4-difluorocyclohexanecarbonyl)piperazine-1-carbonyl)-4-fluorophenoxy)2H-phthalazin-1-one], the pIC50 in data set [1] was 6.11; in data set [5] it was 5.72.

Consider `CN(C)C1(C(=O)N2CCN(C(=O)c3cc(Oc4n[nH]c(=O)c5ccccc45)ccc3F)CC2)CCC1` [Compound 126, 4-(3-(4-(1-(dimethylamino)cyclobutanecarbonyl)piperazine-1-carbonyl)-4-fluorophenoxy)2H-phthalazin-1-one], for which the pIC50 is 5.96 in data set [1], 5.40 in data set [5] and 5.72 in data set [4].

As for `O=C(c1cc(Oc2n[nH]c(=O)c3ccccc23)ccc1F)N1CCN(C(=O)N2CCCCC2)CC1` [Compound 85, 4-(4-fluoro-3-(4-(piperidine-1-carbonyl)piperazine-1-carbonyl)phenoxy)-2H-phthalazin-1-one], the pIC50 is 5.82 in data set [1], 5.62 in data set [5] and 5.43 in data set [4].

Source of the values: US9718787B2, “Poly (ADP-ribose) polymerase inhibitor” (CHENGDU DI'AO PHARMACEUTICAL GROUP CO., LTD., priority 2011, dated 2017).
